Laboratory results as given in patent EP0309421A2, “O-alkanoyl derivatives of 3-amino-2-hydroxypropanesulfonic acid having anticonvulsivant activity and pharmaceutical compositions containing same for the therapeutical treatment of epilepsy” (SIGMA TAU Industrie Farmaceutiche Riunite S.p.A., priority 1987, dated 1989).
Marks after values point to notes of the source that are not given here.

What was measured:
[1] = test system: bicuculline-induced convulsions; assay: Anticonvulsivant test, bicuculline-induced convulsions; assay type: in vivo, male albino swiss (Charles River) mice
Method: (§1) Anticonvulsivant tests were carried out using cardiazol, strychnine and bicuculline at doses of 100 mg/10 ml/kg i.p., 0.73 mg/10 ml/kg s.c. and 2.38 mg/10 ml/kg s.c., respectively, chosen in such a way as to provoke death in 50% of the control animals.
(§2) The tests were carried out in male albino swiss (Charles River) mice weighing 22-24 g. The compound under examination, dissolved in water, was i.p. administered 30 minutes before the convulsivant agent administration.
(§3) As reference substance, 3-APS (200-400-800 mg/10 ml/kg i.p.) was used.

[2] = test system: cardiazol-induced convulsions; assay: Anticonvulsivant test, cardiazol-induced convulsions; assay type: in vivo, male albino swiss (Charles River) mice
Method: as §1, §2, §3

[3] = test system: strychnine-induced convulsions; assay: Anticonvulsivant test, strychnine-induced convulsions; assay type: in vivo, male albino swiss (Charles River) mice
Method: as §1, §2, §3

[4] = test system: auricular electroshock; assay: Auricular electroshock (maximal electroshock); assay type: in vivo, Male albino Swiss mice; conditions: 14 animals, control 6/14
Method: Male albino Swiss mice weighing 22-24 g were used in this test. The electroshock conditions were the following: • shock duration: 3 seconds; frequence: 100; pulse amplitude: 0.6 milliseconds, current intensity: 40 milliamperes. • 400 and 800 mg/10 ml/kg of the compound under examination were administered via the intraperitoneal route 30 minutes before the electroshock.
The tests results which illustrate the number of animals preserved from death provoked by maximal electroshock are shown in the following Table 3.

[5] = test system: male and female Sprague Dawley rats; assay: Toxicity test, oral administration for 15 consecutive days; assay type: in vivo; conditions: 150-450-1350 mg/10 ml/kg for 15 consecutive days
Method: The toxicity tests were carried out on male and female Sprague Dawley rats which were orally administered ST549 at the doses of 150-450-1350 mg/10 ml/kg for 15 consecutive days; the control animals were administered the same volume of vehicle as the test animals.

[6] = test system: male albino swiss mice; assay: Tolerability test, intravenous; assay type: in vivo; conditions: 1.4 g/kg intravenously, in sterile saline at neutral pH
Method: The tolerability test was carried out on male albino swiss mice weighing 22-24 g.

[7] = test system: FeCl3-induced epilepsy; assay: Antiepileptic activity test (FeCl3-induced epilepsy model); assay type: in vivo, Male albino Wistar rats; conditions: 500, 250 and 125 mg/kg i.v. ninety minutes following FeCl3 injection; Mann-Whitney's "U" test, P<0.05
Method: Male albino Wistar rats weighing 250-300 g were used. The animals, anaesthetized with Nembutal Na (30 mg/kg e.p.), were stereotactically injected in their left ventral hippocampus one microliter of 0.55 M FeC13 solution (AP =-3.2; L=5.0; H=5.5 Pellegrino and Cushman, 1971). Ten minutes following injection, recording electrodes were implanted: in both ventral hippocampi, two millimeters below the FeC13 injection site (bipolars), bilaterally on the frontoparietal cortex (monopolars). […] The epilepsy degree was assessed by calculating for each animal the number and duration in seconds of the seizures at 5-minute intervals during the whole recording span both in the hippocampus where the injection had been performed and in the contralateral cortex. Moreover, an "index of epileptization" was calculated as the mean product of seizure number times the duration of the seizures in each time interval. […]
The results thus obtained show the antiepileptic activity of the compound assessed by examining the whole phenomenon as it evolves in time via the measure (carried out with the trapezoidal rule) of the area under the curve wherein the average number of seizures and their duration is plotted versus time.

[8] = Stability of the solid product versus pH (deacylation); assay type: physicochemical; conditions: above it deacylation of the compound takes place
Text: After it had been cooled to room temperature the mixtured was filtered and the filtrate added dropwise to an Erlenmeyer flask containing about 700 milliliters of ethyl ether. A white precipitate formed which was again dissolved in methanol, filtered and re-precipitated with ether. Upon drying 7.3 g of a white, hygroscopic solid product, stable at pH <6.3 were obtained; above this […] deacylation of the compound takes place. • Elementary analysis: [formula] • NMR corresponding

[9] = Bicuculline, 3-APS 800 mg/kg i.p.
[10] = doses of 200,400 and 800 mg/10 ml/kg i.p.
[11] = Cardiazol, 3-APS 400 mg/kg i.p.
[12] = Cardiazol, 3-APS 800 mg/kg i.p.
[13] = Strychnine, 3-APS 400 mg/kg i.p.
[14] = Strychnine, 3-APS 800 mg/kg i.p.
[15] = Bicuculline, ST 549 i.p., equimolar to 400 mg/kg 3APS
[16] = Cardiazol, ST 549 i.p., equimolar to 400 mg/kg 3APS
[17] = lower dose (equimolar to 200 mg/10 ml/kg of 3-APS)
[18] = Strychnine, ST 549 i.p., equimolar to 400 mg/kg 3APS

NCCCS(=O)(=O)O [3-APS, 3-aminopropanesulfonic acid]
latency time of bicuculline-induced death ([1]; 400 mg/10 ml/kg i.p.): significantly increased
latency time of the bicuculline-induced first convulsion ([1]; 800 mg/kg i.p.): significantly increased
% Conv. ([1]; Bicuculline 2.38 mg/10 ml/kg s.c., 3-APS 200 mg/kg i.p. 30 min before, 10 animals): 100%
% Death rate ([1]; Bicuculline, 3-APS 200 mg/kg i.p.): 100%
% Death rate ([1]; Bicuculline, 3-APS 400 mg/kg i.p.): 75%
% Conv. ([1]; Bicuculline, 3-APS 400 mg/kg i.p., 8 animals per group): 100* %
% Conv. [1, 9]: 70%
% Death rate [1, 9]: 40%
preservation from bicuculline-induced death [1, 10]: did not preserve animals
% Conv. ([2]; Cardiazol 100 mg/10 ml/kg i.p., 3-APS 200 mg/kg i.p. 30 min before, 10 animals): 100%
% Death rate ([2]; Cardiazol, 3-APS 200 mg/kg i.p.): 50%
% Conv. [2, 11]: 100%
% Death rate [2, 11]: 90%
% Conv. [2, 12]: 100%
% Death rate [2, 12]: 60%
preservation from cardiazole-induced death [2, 10]: did not preserve animals
% Conv. ([3]; Strychnine 0.73 mg/10 ml/kg s.c., 3-APS 200 mg/kg i.p. 30 min before, 10 animals): 100%
% Death rate ([3]; Strychnine, 3-APS 200 mg/kg i.p.): 90%
% Conv. [3, 13]: 100%
% Death rate [3, 13]: 100%
% Conv. [3, 14]: 100%
% Death rate [3, 14]: 90%
preservation from strychnine-induced death [3, 10]: did not preserve animals

CC(=O)OC(CN)CS(=O)(=O)O (stereo not shown) [ST 549, 3-amino-2-acetyloxy propanesulfonic acid]
death rate ([4]; 400 mg/kg i.p. 30 minutes before the electroshock): 3/14
death rate ([4]; 800 mg/kg i.p. 30 minutes before the electroshock): 3/14
general health or behaviour of the animals [5]: did not affect
Autopsy, main organs ([5]; at the end of the test): did not reveal either alterations or lesions to the main organs
blood and urine parameters ([5]; with respect to the controls): unchanged
% Death rate ([1]; Bicuculline, ST 549 i.p., equimolar to 200 mg/kg 3APS): 60%
% Conv. ([1]; Bicuculline, ST 549 i.p., equimolar to 200 mg/kg 3APS, 10 animals): 70%
% Conv. [1, 15]: 60%
% Death rate [1, 15]: 60%
decrease of bicuculline-induced death rate ([1]; doses equimolar to 400 and 200 mg/10 ml/kg i.p. of 3-APS): 30%
animals preserved from convulsions (bicuculline) ([1]; doses equimolar to 400 and 200 mg/10 ml/kg i.p. of 3-APS, printed as "the same percentage"): 30%
% Conv. ([2]; Cardiazol, ST 549 i.p., dose equimolar to 200 mg/kg 3APS, 10 animals): 100%
% Death rate ([2]; Cardiazol, ST 549 i.p., equimolar to 200 mg/kg 3APS): 50%
% Conv. [2, 16]: 90%
% Death rate [2, 16]: 0%
animals preserved from cardiazol-induced death ([2]; dose equimolar to 400 mg/10 ml/kg i.p. of 3-APS): 100%
effect on the relevant parameters (cardiazol) [2, 17]: did not affect the relevant parameters
% Death rate ([3]; Strychnine, ST 549 i.p., equimolar to 200 mg/kg 3APS): 90%
% Conv. ([3]; Strychnine, ST 549 i.p., equimolar to 200 mg/kg 3APS, 10 animals): 100%
% Conv. [3, 18]: 100%
% Death rate [3, 18]: 90%
latency time of strychnine-induced death [3, 17]: significantly increased
latency time of strychnine-induced first convulsion [3, 17]: significantly increased
tolerability [6]: well tolerated
area under the curve of average number of seizures and their duration versus time, compared with controls [7]: statistically significant difference

CCCC(=O)OC(CN)CS(=O)(=O)O.Cl (stereo not shown) [ST 477, 3-amino-2-butanoyloxypropanesulfonic acid hydrochloride]
stable at pH [8]: < 6.3
